Measurements published in patent publication US20230312587A1, “PTERIDINONE COMPOUNDS AND USES THEREOF” (Vertex Pharmaceutical Incorporated, priority 2018, published 2023).

Test system: β-catenin-TCF-mediated reporter transcription activity in Colo 205 cells
Test: Colo 205 reporter assay (TCF/LEF luciferase)
Type: cell-based
Conditions: Colo 205 TCF/LEF luciferase reporter, five hours after addition of compound; read-out: TCF reporter Colo205 IC50
Procedure, shortened: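 Luciferase signal from a TCF/LEF-driven reporter, stably integrated in Colo 205 colon cancer cells, was measured 5 h after compound addition.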

Row | SMILES | IC50 [nM]
1 | Cc1nc(NC2CC(C)(OCc3cc(F)c(F)c(F)c3)C2)nc2c1NC(=O)[C@H](C)N2C (stereo in doubt) [Compound 290, (7S)-4,7,8-trimethyl-2-((cis-3-methyl-3-((3,4,5-trifluorobenzyl)oxy)cyclobutyl)amino)-7,8-dihydropteridin-6(5H)-one] | ≥ 5000
2 | Cc1nc(N[C@H]2C[C@H](Oc3ccc(F)cc3F)C2)nc2c1NC(=O)[C@H](C)N2C (relative stereo) [Compound 295, (7S)-4,7,8-trimethyl-2-((trans-3-(2,4-drifluorophenoxy)cyclobutyl)amino)-7,8-dihydropteridin-6(5H)-one] | < 300

Same assay, conditions: Homo sapiens, COLO 205, 5 h, Colo 205 TCF/LEF luciferase reporter, five hours after addition of compound; read-out: TCF reporter Colo205 IC50

Row | SMILES | IC50 [nM]
3 | Cc1nc(N[C@H]2C[C@H](Oc3ccc(C(F)(F)F)nc3)C2)nc2c1NC(=O)C1(CCOC1)N2C (relative stereo) [Compound 689, 4′,8′-dimethyl-2′-((trans-3-((6-(trifluoromethyl)pyridin-3-yl)oxy)cyclobutyl)amino)-4,5,5′,8′-tetrahydro-2H,6′H-spiro[furan-3,7′-pteridin]-6′-one] | 300 to 1000
4 | Cc1nc(NCc2cnn([C@H](C)c3ccc(F)cc3)c2)nc2c1NC(=O)[C@H](C)N2C [Compound 72, (7S)-2-(((1-((R)-1-(4-fluorophenyl)ethyl)-1H-pyrazol-4-yl)methyl)amino)-4,7,8-trimethyl-7,8-dihydropteridin-6(5H)-one] | < 300
5 | CCc1noc(C)c1Cn1cc(CNc2nc(C)c3c(n2)N(C)[C@@H](C)C(=O)N3)cn1 [Compound 158, (7S)-2-(((1-((3-ethyl-5-methylisoxazol-4-yl)methyl)-1H-pyrazol-4-yl)methyl)amino)-4,7,8-trimethyl-7,8-dihydropteridin-6(5H)-one] | < 300
6 | Cc1nc(N[C@H]2C[C@@H](Cn3cc(F)cn3)C2)nc2c1NC(=O)[C@H](C)N2C [Compound 279, (7S)-2-((cis-3-((4-fluoro-1H-pyrazol-1-yl)methyl)cyclobutyl)amino)-4,7,8-trimethyl-7,8-dihydropteridin-6(5H)-one] | 300 to 1000
7 | Cc1nc(N[C@H]2C[C@H](Oc3ccc(F)cc3)C2)nc2c1NC(=O)[C@H](C)N2C [Compound 242, (7S)-2-((trans 3-(4-fluorophenoxy)cyclobutyl)amino)-4,7,8-trimethyl-7,8-dihydropteridin-6(5H)-one] | < 300
8 | Cc1nc(NC2CN(C(=O)C3CC4CCC3C4)C2)nc2c1NC(=O)[C@H](C(C)C)N2C (stereo partly drawn) [Compound 639, (7S)-2-((1-(bicyclo[2.2.1]heptane-2-carbonyl)azetidin-3-yl)amino)-7-isopropyl-4,8-dimethyl-7,8-dihydropteridin-6(5H)-one] | 1000 to 5000
9 | CO[C@H](C)[C@H]1C(=O)Nc2c(C)nc(N[C@H]3C[C@@H](Cn4nccc4C(F)(F)F)C3)nc2N1C [Compound 588, (S)-7-((R)-1-methoxyethyl)-4,8-dimethyl-2-((cis-3-((5-(trifluoromethyl)-1H-pyrazol-1-yl)methyl)cyclobutyl)amino)-7,8-dihydropteridin-6(5H)-one] | < 300
10 | Cc1nc(NCc2cnn(Cc3ccc(C(F)(F)F)nc3)c2)nc2c1N(C)C(=O)[C@H](C)N2C [Compound 177, (7S)-4,5,7,8-tetramethyl-2-(((1-((6-(trifluoromethyl)pyridin-3-yl)methyl)-1H-pyrazol-4-yl)methyl)amino)-7,8-dihydropteridin-6(5H)-one] | < 300
11 | Cc1nc(NC2CN(C(=O)Cc3ccc(C(F)(F)F)nc3)C2)nc2c1NC(=O)[C@H](C(C)C)N2C [Compound 594, (S)-7-isopropyl-4,8-dimethyl-2-((1-(2-(6-(trifluoromethyl)pyridin-3-yl)acetyl)azetidin-3-yl)amino)-7,8-dihydropteridin-6(5H)-one] | 1000 to 5000
12 | Cc1nc(NC2CN(C(=O)c3cc(C(F)(F)F)n(C)n3)C2)nc2c1NC(=O)[C@H](C(C)C)N2C [Compound 597, (S)-7-isopropyl-4,8-dimethyl-2-((1-(1-methyl-5-(trifluoromethyl)-1H-pyrazole-3-carbonyl)azetidin-3-yl)amino)-7,8-dihydropteridin-6(5H)-one] | 1000 to 5000
13 | Cc1nc(N[C@H]2C[C@H](NC(=O)c3cc(F)c(F)c(F)c3)C2)nc2c1NC(=O)[C@H](C)N2C [Compound 476, 3,4,5-trifluoro-N-(trans-3-(((S)-4,7,8-trimethyl-6-oxo-5,6,7,8-tetrahydropteridin-2-yl)amino)cyclobutyl)benzamide] | 1000 to 5000
14 | Cc1nc(N[C@H]2C[C@H](Oc3ccnc(C(F)(F)F)c3)C2)nc2c1N(C)C(=O)[C@H](C)N2C [Compound 337, (7S)-4,5,7,8-tetramethyl-2-((trans-3-((2-(trifluoromethyl)pyridin-4-yl)oxy)cyclobutyl)amino)-7,8-dihydropteridin-6(5H)-one] | 300 to 1000
15 | Cc1nc(NCc2cnn(Cc3cc(F)c(F)c(F)c3)c2)nc2c1NC(=O)[C@H](COC(C)(C)C)N2C [Compound 741, (S)-7-(tert-butoxymethyl)-4,8-dimethyl-2-(((1-(3,4,5-trifluorobenzyl)-1H-pyrazol-4-yl)methyl)amino)-7,8-dihydropteridin-6(5H)-one] | 300 to 1000
16 | Cc1nc(N[C@H]2CCN(C(=O)c3cc(F)c(F)c(F)c3)C2)nc2c1NC(=O)[C@H](C(C)C)N2C [Compound I-509] | 300 to 1000
17 | COc1ccc(Cn2cc(CNc3nc(C)c4c(n3)N(C)[C@@H](C)C(=O)N4)cn2)cc1F [Compound 146, (7S)-2-(((1-(3-fluoro-4-methoxybenzyl)-1H-pyrazol-4-yl)methyl)amino)-4,7,8-trimethyl-7,8-dihydropteridin-6(5H)-one] | < 300
18 | COc1c(F)cc(Cn2cc(CNc3nc(C)c4c(n3)N(C)[C@@H]([C@H](C)OC(C)(C)C)C(=O)N4)cn2)cc1F [Compound 746, (S)-7-((S)-1-(tert-butoxy)ethyl)-2-(((1-(3,5-difluoro-4-methoxybenzyl)-1H-pyrazol-4-yl)methyl)amino)-4,8-dimethyl-7,8-dihydropteridin-6(5H)-one] | 300 to 1000
19 | C[C@H]1C(=O)Nc2cnc(N[C@H]3C[C@@H](Oc4ccc(F)cc4)C3)nc2N1C [Compound 241, (7S)-2-((cis-3-(4-fluorophenoxy)cyclobutyl)amino)-7,8-dimethyl-7,8-dihydropteridin-6(5H)-one] | ≥ 5000
20 | Cc1nc(N[C@H]2C[C@@H](Nc3ccc(F)cn3)C2)nc2c1NC(=O)[C@H](C(C)C)N2C [Compound 732, (S)-2-((cis-3-((5-fluoropyridin-2-yl)amino)cyclobutyl)amino)-7-isopropyl-4,8-dimethyl-7,8-dihydropteridin-6(5H)-one] | 1000 to 5000
21 | Cc1nc(NCc2nc(-c3ccccc3)cs2)nc2c1NC(=O)[C@H](C)N2C [Compound 59, (7S)-4,7,8-trimethyl-2-(((4-phenylthiazol-2-yl)methyl)amino)-7,8-dihydropteridin-6(5H)-one] | ≥ 5000
22 | Cc1nc(N[C@H]2C[C@@H](Sc3ccc(C(F)(F)F)cc3)C2)nc2c1NC(=O)[C@H](C)N2C [Compound 321, (7S)-4,7,8-trimethyl-2-((cis-3-((4-(trifluoromethyl)phenyl)thio)cyclobutyl)amino)-7,8-dihydropteridin-6(5H)-one] | 300 to 1000
23 | Cc1nc(N[C@H]2CC[C@H](Oc3cc(F)c(F)c(F)c3)C2)nc2c1N(C)C(=O)[C@H](C)N2C [Compound 273, (S)-4,5,7,8-tetramethyl-2-(((1S,3S)-3-(3,4,5-trifluorophenoxy)cyclopentyl)amino)-7,8-dihydropteridin-6(5H)-one] | < 300
24 | CC(=O)c1ccc(OC[C@H]2C[C@@H](Nc3nc(C)c4c(n3)N(C)[C@@H](C(C)C)C(=O)N4)C2)cn1 [Compound 696, (S)-2-((cis-3-(((6-acetylpyridin-3-yl)oxy)methyl)cyclobutyl)amino)-7-isopropyl-4,8-dimethyl-7,8-dihydropteridin-6(5H)-one] | 300 to 1000
25 | Cc1nc(N[C@H]2C[C@@H](COc3cncc(Cl)c3)C2)nc2c1NC(=O)[C@H](C)N2C [Compound 366, (7S)-2-((cis-3-(((5-chloropyridin-3-yl)oxy)methyl)cyclobutyl)amino)-4,7,8-trimethyl-7,8-dihydropteridin-6(5H)-one] | < 300
26 | Cc1nc(NCc2cnn(Cc3ccccc3)c2)nc2c1NC(=O)[C@H](C)N2C [Compound 53, (7S)-2-(((1-benzyl-1H-pyrazol-4-yl)methyl)amino)-4,7,8-trimethyl-7,8-dihydropteridin-6(5H)-one] | < 300
27 | Cc1nc(N[C@H]2CC[C@@H](N(C)c3ccc(C(F)(F)F)cc3)C2)nc2c1NC(=O)[C@H](C(C)C)N2C [Compound 502, (S)-7-isopropyl-4,8-dimethyl-2-(((1S,3R)-3-(methyl(4-(trifluoromethyl)phenyl)amino)cyclopentyl)amino)-7,8-dihydropteridin-6(5H)-one] | 1000 to 5000
28 | C[C@H]1C(=O)Nc2cnc(NCc3cnn(CCc4ccc(F)c(F)c4)c3)nc2N1C [Compound 111, (7S)-2-(((1-(3,4-difluorophenethyl)-1H-pyrazol-4-yl)methyl)amino)-7,8-dimethyl-7,8-dihydropteridin-6(5H)-one] | 300 to 1000
29 | Cc1cc(OC(C)C)ncc1Cn1cc(CNc2nc(C)c3c(n2)N(C)[C@@H](C)C(=O)N3)cn1 [Compound 168, (7S)-2-(((1-((6-isopropoxy-4-methylpyridin-3-yl)methyl)-1H-pyrazol-4-yl)methyl)amino)-4,7,8-trimethyl-7,8-dihydropteridin-6(5H)-one] | < 300

Same assay, conditions: Homo sapiens, COLO 205, 5 h, R-isomer at C2 (corresponding to C2 S-isomer); Colo 205 TCF/LEF luciferase reporter, 5 h; read-out: TCF reporter Colo205 IC50

Row | SMILES | IC50 [nM]
30 | CCC[C@@H]1C(=O)N(C)c2cnc(NCc3cnn(Cc4cc(F)c(F)c(F)c4)c3)nc2N1C [Compound I-1348] | < 300
31 | Cc1cc(F)ncc1Cn1cc(CNc2nc(C)c3c(n2)N(C)[C@H](C(C)C)C(=O)N3)cn1 [Compound I-1643] | 1000 to 5000
32 | CC(=O)N(Cc1cnn(Cc2ccc(C(F)(F)F)nc2)c1)c1nc(C)c2c(n1)N(C)[C@H](C)C(=O)N2 [Compound I-1640] | ≥ 5000
